44 substances from patent publication US9029337B2, “Modulation of factor 7 expression” (Isis Pharmaceuticals, Inc., priority 2007, dated 2015) can be followed below.

Strand notation (5' to 3'): a small letter for the sugar, then the base; units joined by * are phosphorothioate-linked, units joined directly phosphodiester-linked; [ ] holds rarer units or linkages, { } end groups; capitals alone tell only the bases. e = 2'-O-(2-methoxyethyl) (MOE); [5mC] = 5-methylcytosine; d = 2'-deoxy (DNA)

As usually defined, the % Inhibition is how much of the control response was suppressed. A lower % Inhibition goes with a response near the control.

One data set deals with human Factor 7 mRNA. The data set is described as follows: Antisense inhibition of human Factor 7 mRNA in HepB3 cells, 50 nM antisense oligonucleotide, lipofectin. Format: cell-based. The note with it: Table 6, 50 nM, lipofectin, approximately 24 hours. In outline:
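Cells plated at 4,000 per well were transfected and harvested after approximately 24 hours of treatment. Transcript levels, measured with primer probe set RTS 2927, were normalised to total RNA by RIBOGREEN®. Values are percent inhibition relative to untreated control cells.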
As to “422122 (antisense eA*eG*e[5mC]*eG*e[5mC]*dG*dG*dA*dA*dG*dA*dA*dG*dG*dG*eA*e[5mC]*eG*eG*eA) [compound 422122]”, the “% Inhibition” value is 24%.

Turning to “422123 (antisense eG*eA*eG*e[5mC]*eG*d[5mC]*dG*dG*dA*dA*dG*dA*dA*dG*dG*eG*eA*e[5mC]*eG*eG) [compound 422123]”, the “% Inhibition” value was 16%.

For “422124 (antisense eT*eG*eA*eG*e[5mC]*dG*d[5mC]*dG*dG*dA*dA*dG*dA*dA*dG*eG*eG*eA*e[5mC]*eG) [compound 422124]”, the “% Inhibition” value came to 0%.

Regarding “422125 (antisense e[5mC]*eT*eG*eA*eG*d[5mC]*dG*d[5mC]*dG*dG*dA*dA*dG*dA*dA*eG*eG*eG*eA*e[5mC]) [compound 422125]”, the “% Inhibition” value was determined as 8%.

With “422126 (antisense eA*e[5mC]*eT*eG*eA*dG*d[5mC]*dG*d[5mC]*dG*dG*dA*dA*dG*dA*eA*eG*eG*eG*eA) [compound 422126]”, the “% Inhibition” value is 22%.

Consider “422127 (antisense eT*eA*e[5mC]*eT*eG*dA*dG*d[5mC]*dG*d[5mC]*dG*dG*dA*dA*dG*eA*eA*eG*eG*eG) [compound 422127]”, for which the “% Inhibition” value is listed as 17%.

Regarding “422128 (antisense eT*eT*eA*e[5mC]*eT*dG*dA*dG*d[5mC]*dG*d[5mC]*dG*dG*dA*dA*eG*eA*eA*eG*eG) [compound 422128]”, the “% Inhibition” value came to 27%.

On to “422129 (antisense eG*eT*eT*eA*e[5mC]*dT*dG*dA*dG*d[5mC]*dG*d[5mC]*dG*dG*dA*eA*eG*eA*eA*eG) [compound 422129]”, for which the “% Inhibition” value was determined as 45%.

The same data set, now with this note: Table 13 (microwalk), 50 nM, lipofectin, approximately 24 hours.
On to “422149 (antisense e[5mC]*eA*eT*dG*dG*dT*dG*dA*dT*dG*d[5mC]*dT*dT*d[5mC]*dT*dG*dA*eA*eT*eT) [compound 422149]”, for which the “% Inhibition” value is given as 61%.

As for “422151 (antisense eT*eG*e[5mC]*dA*dT*dG*dG*dT*dG*dA*dT*dG*d[5mC]*dT*dT*d[5mC]*dT*eG*eA*eA) [compound 422151]”, the “% Inhibition” value stood at 68%.

With “422153 (antisense e[5mC]*eA*eT*dG*d[5mC]*dA*dT*dG*dG*dT*dG*dA*dT*dG*d[5mC]*dT*dT*e[5mC]*eT*eG) [compound 422153]”, the “% Inhibition” value turned out to be 67%.

Still in this data set, the particulars now being: gapmers targeted to nucleobases 4868 to 4899 of SEQ ID NO: 1, Table 8.
On to “422138 (antisense eT*e[5mC]*eT*eG*e[5mC]*dA*dG*dG*dA*dG*d[5mC]*dG*dG*d[5mC]*d[5mC]*eT*eA*eA*eA*eT) [compound 422138]”, for which the “% Inhibition of human Factor 7 mRNA levels” value was found to be 70%.

On to “422139 (antisense eT*eT*e[5mC]*eT*eG*d[5mC]*dA*dG*dG*dA*dG*d[5mC]*dG*dG*d[5mC]*e[5mC]*eT*eA*eA*eA) [compound 422139]”, for which the “% Inhibition of human Factor 7 mRNA levels” value turned out to be 66%.

Take “422141 (antisense eA*eG*eT*eT*e[5mC]*dT*dG*d[5mC]*dA*dG*dG*dA*dG*d[5mC]*dG*eG*e[5mC]*e[5mC]*eT*eA) [compound 422141]”: the “% Inhibition of human Factor 7 mRNA levels” value is 64%.

As for “422143 (antisense e[5mC]*e[5mC]*eG*eA*eG*dT*dT*d[5mC]*dT*dG*d[5mC]*dA*dG*dG*dA*eG*e[5mC]*eG*eG*e[5mC]) [compound 422143]”, the “% Inhibition of human Factor 7 mRNA levels” value was 70%.

On to “422144 (antisense e[5mC]*e[5mC]*e[5mC]*eG*eA*dG*dT*dT*d[5mC]*dT*dG*d[5mC]*dA*dG*dG*eA*eG*e[5mC]*eG*eG) [compound 422144]”, for which the “% Inhibition of human Factor 7 mRNA levels” value turned out to be 58%.

“422145 (antisense eG*e[5mC]*e[5mC]*e[5mC]*eG*dA*dG*dT*dT*d[5mC]*dT*dG*d[5mC]*dA*dG*eG*eA*eG*e[5mC]*eG) [compound 422145]”: the “% Inhibition of human Factor 7 mRNA levels” value is 57%.

For “422146 (antisense eA*eG*e[5mC]*e[5mC]*e[5mC]*dG*dA*dG*dT*dT*d[5mC]*dT*dG*d[5mC]*dA*eG*eG*eA*eG*e[5mC]) [compound 422146]”, the “% Inhibition of human Factor 7 mRNA levels” value amounted to 58%.

Turning to “422147 (antisense eG*eA*eG*e[5mC]*e[5mC]*d[5mC]*dG*dA*dG*dT*dT*d[5mC]*dT*dG*d[5mC]*eA*eG*eG*eA*eG) [compound 422147]”, the “% Inhibition of human Factor 7 mRNA levels” value is on record as 64%.

Take “422148 (antisense eG*eG*eA*eG*e[5mC]*d[5mC]*d[5mC]*dG*dA*dG*dT*dT*d[5mC]*dT*dG*e[5mC]*eA*eG*eG*eA) [compound 422148]”: the “% Inhibition of human Factor 7 mRNA levels” value is given as 57%.

The data set is the same for the next values; noted with them: oligonucleotides targeted to nucleobases 11830 to 11869 of SEQ ID NO: 1 (Table 9).
Regarding “422154 (antisense eT*e[5mC]*eA*dG*dG*dG*d[5mC]*dT*dG*dG*dT*dT*dT*dT*dG*dG*dA*eG*eG*eA) [compound 422154]”, the “% Inhibition (human Factor 7 mRNA levels)” value came out at 31%.

Turning to “422155 (antisense eG*eT*e[5mC]*dA*dG*dG*dG*d[5mC]*dT*dG*dG*dT*dT*dT*dT*dG*dG*eA*eG*eG) [compound 422155]”, the “% Inhibition (human Factor 7 mRNA levels)” value is listed as 34%.

Take “422156 (antisense eG*eG*eT*d[5mC]*dA*dG*dG*dG*d[5mC]*dT*dG*dG*dT*dT*dT*dT*dG*eG*eA*eG) [compound 422156]”: the “% Inhibition (human Factor 7 mRNA levels)” value is recorded as 38%.

Turning to “422157 (antisense eT*eG*eG*dT*d[5mC]*dA*dG*dG*dG*d[5mC]*dT*dG*dG*dT*dT*dT*dT*eG*eG*eA) [compound 422157]”, the “% Inhibition (human Factor 7 mRNA levels)” value is 49%.

“422158 (antisense eA*eT*eG*dG*dT*d[5mC]*dA*dG*dG*dG*d[5mC]*dT*dG*dG*dT*dT*dT*eT*eG*eG) [compound 422158]”: the “% Inhibition (human Factor 7 mRNA levels)” value is recorded as 49%.

Consider “422159 (antisense eA*eA*eT*dG*dG*dT*d[5mC]*dA*dG*dG*dG*d[5mC]*dT*dG*dG*dT*dT*eT*eT*eG) [compound 422159]”, for which the “% Inhibition (human Factor 7 mRNA levels)” value is 45%.

In the case of “422160 (antisense e[5mC]*eA*eA*dT*dG*dG*dT*d[5mC]*dA*dG*dG*dG*d[5mC]*dT*dG*dG*dT*eT*eT*eT) [compound 422160]”, the “% Inhibition (human Factor 7 mRNA levels)” value worked out at 42%.

As for “422161 (antisense eA*e[5mC]*eA*dA*dT*dG*dG*dT*d[5mC]*dA*dG*dG*dG*d[5mC]*dT*dG*dG*eT*eT*eT) [compound 422161]”, the “% Inhibition (human Factor 7 mRNA levels)” value is reported as 53%.

As for “422162 (antisense eG*eA*e[5mC]*dA*dA*dT*dG*dG*dT*d[5mC]*dA*dG*dG*dG*d[5mC]*dT*dG*eG*eT*eT) [compound 422162]”, the “% Inhibition (human Factor 7 mRNA levels)” value worked out at 59%.

“422163 (antisense eA*eG*eA*d[5mC]*dA*dA*dT*dG*dG*dT*d[5mC]*dA*dG*dG*dG*d[5mC]*dT*eG*eG*eT) [compound 422163]”: the “% Inhibition (human Factor 7 mRNA levels)” value is given as 56%.

Regarding “422164 (antisense eG*eA*eG*dA*d[5mC]*dA*dA*dT*dG*dG*dT*d[5mC]*dA*dG*dG*dG*d[5mC]*eT*eG*eG) [compound 422164]”, the “% Inhibition (human Factor 7 mRNA levels)” value is reported as 64%.

Take “422165 (antisense eG*eG*eA*dG*dA*d[5mC]*dA*dA*dT*dG*dG*dT*d[5mC]*dA*dG*dG*dG*e[5mC]*eT*eG) [compound 422165]”: the “% Inhibition (human Factor 7 mRNA levels)” value was 57%.

In the case of “422166 (antisense eA*eG*eG*dA*dG*dA*d[5mC]*dA*dA*dT*dG*dG*dT*d[5mC]*dA*dG*dG*eG*e[5mC]*eT) [compound 422166]”, the “% Inhibition (human Factor 7 mRNA levels)” value was 63%.

Consider “422167 (antisense eG*eA*eG*dG*dA*dG*dA*d[5mC]*dA*dA*dT*dG*dG*dT*d[5mC]*dA*dG*eG*eG*e[5mC]) [compound 422167]”, for which the “% Inhibition (human Factor 7 mRNA levels)” value amounted to 53%.

For the substance “422168 (antisense eT*eG*eA*dG*dG*dA*dG*dA*d[5mC]*dA*dA*dT*dG*dG*dT*d[5mC]*dA*eG*eG*eG) [compound 422168]”, the “% Inhibition (human Factor 7 mRNA levels)” value was found to be 30%.

In the case of “422169 (antisense e[5mC]*eT*eG*dA*dG*dG*dA*dG*dA*d[5mC]*dA*dA*dT*dG*dG*dT*d[5mC]*eA*eG*eG) [compound 422169]”, the “% Inhibition (human Factor 7 mRNA levels)” value is 56%.

For “422170 (antisense eG*e[5mC]*eT*dG*dA*dG*dG*dA*dG*dA*d[5mC]*dA*dA*dT*dG*dG*dT*e[5mC]*eA*eG) [compound 422170]”, the “% Inhibition (human Factor 7 mRNA levels)” value is 28%.

Still in this data set, the particulars now being: oligonucleotides targeted to nucleobases 14707 to 14732 of SEQ ID NO: 1 (Table 11).
As to “422131 (antisense eA*eG*e[5mC]*e[5mC]*eT*dG*dA*dG*dG*d[5mC]*d[5mC]*dA*dG*d[5mC]*dA*eG*eA*eT*e[5mC]*eA) [compound 422131]”, the “% Inhibition (human Factor 7 mRNA levels)” value came out at 68%.

“422132 (antisense eG*e[5mC]*eA*eG*e[5mC]*d[5mC]*dT*dG*dA*dG*dG*d[5mC]*d[5mC]*dA*dG*e[5mC]*eA*eG*eA*eT) [compound 422132]”: the “% Inhibition (human Factor 7 mRNA levels)” value is reported as 54%.

As to “422133 (antisense eA*eG*e[5mC]*eA*eG*d[5mC]*d[5mC]*dT*dG*dA*dG*dG*d[5mC]*d[5mC]*dA*eG*e[5mC]*eA*eG*eA) [compound 422133]”, the “% Inhibition (human Factor 7 mRNA levels)” value is listed as 65%.

The data set is the same for the next values; noted with them: oligonucleotides targeted to nucleobases 15098 to 15122 of SEQ ID NO: 1 (Table 12).
As for “422134 (antisense eG*e[5mC]*eA*e[5mC]*eA*d[5mC]*dA*dT*dG*dG*dA*dG*dT*d[5mC]*dA*eG*e[5mC]*eA*eT*e[5mC]) [compound 422134]”, the “% Inhibition (human Factor 7 mRNA levels)” value was 67%.

For the substance “422135 (antisense eA*eG*e[5mC]*eA*e[5mC]*dA*d[5mC]*dA*dT*dG*dG*dA*dG*dT*d[5mC]*eA*eG*e[5mC]*eA*eT) [compound 422135]”, the “% Inhibition (human Factor 7 mRNA levels)” value is reported as 53%.

“422136 (antisense e[5mC]*eA*eG*e[5mC]*eA*d[5mC]*dA*d[5mC]*dA*dT*dG*dG*dA*dG*dT*e[5mC]*eA*eG*e[5mC]*eA) [compound 422136]”: the “% Inhibition (human Factor 7 mRNA levels)” value turned out to be 57%.

With “422137 (antisense eA*e[5mC]*eA*eG*e[5mC]*dA*d[5mC]*dA*d[5mC]*dA*dT*dG*dG*dA*dG*eT*e[5mC]*eA*eG*e[5mC]) [compound 422137]”, the “% Inhibition (human Factor 7 mRNA levels)” value is reported as 45%.
